Experimental findings from US20040053966A1, “Chemical derivatives and their application as antitelomerase agent” (Aventis Pharms S.A., priority 1999, published 2004) are described below.

The subject of data set [1] is G-quadruplex of oligonucleotide GGGTTAGGGTTAGGGTTAGGG (3.5 repeats of the human telomeric motif). Put plainly: G-quadruplex stabilizing activity, fluorescence Tm (FAM+DABCYL oligonucleotide). The format is binding. The following applies: test product 1 μM, oligonucleotide 0.2 μM, 0.1 M LiCl, 10 mM cacodylate pH 7.6; reference without product 44° C. From the text: The G-quadruplex stabilizing activity may be determined by a method using the formation of a complex with fluorescein of which the experimental protocol is described below. Oligonucleotides […] The oligonucleotide FAM+DABCYL carries the catalogue reference OL-0371-0802. It has the sequence: […] The fluorescein is attached to the 5' end, the DABCYL to the 3' end, by the chemical arms described by Eurogentec. The concentration of the samples is checked by spectrophotometry, recording the absorbance spectrum between 220 and 700 nm and using the molar extinction coefficient provided by the supplier. Buffers All the experiments were carried out in a 10 mM sodium cacodylate buffer pH 7.6 containing 0.1 M lithium chloride (or sodium chloride). The absence of fluorescent contamination in the buffer was checked beforehand. The fluorescent oligonucleotide is added at the final concentration of 0.2 μM. Study of Fluorescence All the measurements of fluorescence were carried out on a Spex Fluorolog DMlB apparatus, using an excitation line width of 1.8 nm and an emission line width of 4.5 nm. The samples are placed in a microquartz cuvette of 0.2×1 cm. The temperature of the sample is controlled by an external water bath. The oligonucleotide alone was analysed at 20, 30, 40, 50, 60, 70 and 80° C. The emission spectra are recorded using an excitation wavelength of 470 nm. The excitation spectra are recorded using either 515 nm or 588 nm as emission wavelength. The spectra are corrected for the response of the instrument by reference curves. A high extinction (80-90%) of the fluorescence of fluorescein at room temperature is observed, in agreement with an intramolecular folding of the oligonucleotide at 20° C. in the form of a G-quadruplex, which induces juxtaposition of its [NT] ends which are respectively linked to fluorescein and to DABCYL. This juxtaposition causes an already-described phenomenon of extinction of fluorescence which is used for “molecular beacons”. Fluorescence Tm: […] The samples are then allowed to incubate for at least 1 hour at 20° C. before each measurement. The use of longer incubation times (up to 24 hours) has no influence on the result obtained. Each experiment allows the measurement of only one sample. The latter is first incubated at an initial temperature of 20° C., heated to 80° C. over 38 minutes, left for 5 minutes at 80° C. and then cooled to 20° C. over 62 minutes. During this time, the fluorescence is measured simultaneously at two emission wavelengths (515 nm and 588 nm) using 470 nm as excitation wavelength. A measurement is carried out every 30 seconds. The temperature of the water bath is recorded in parallel, and the fluorescence profile as a function of the temperature is reconstituted from these values. The fluorescence profiles are then normalized between 20° C. and 80° C., and the temperature for which the intensity of emission at 515 nm is the mean of those at high and low temperature is called Tm. Under these conditions, the Tm of the reference sample without addition of product is 44° C. in a lithium chloride buffer. This temperature is increased to more than 55° C. in a sodium chloride buffer. The addition of a G-quadruplex-stabilizing compound induces an increase in the Tm. This increase is judged to be significant if it is greater than […].

The test system of data set [2] is human telomerase (HL60 cell extract). Nature of the data set: Antitelomerase activity, TRAP (extension of oligonucleotide TS and PCR amplification). The format is biochemical. The conditions noted are these: telomerase extract from HL60 cells.
Another data set has as its system A549 cells. Put plainly: Cytotoxic activity on human tumour line A549 (neutral red). The format is cell-based. The conditions noted are these: 96 hours incubation, read-out: Cytotox. A549 IC50. Here is the method: The Cytotoxic Biological Activity on Human Tumour Lines is Determined According to the Following Experimental Protocol:
The cells at the exponential growth phase are trypsinized, washed in 1× PBS and are inoculated in 96-well microplates (Costar) in an amount of 4×10^4 cells/ml for A549 and of 1.5×10^4 cells/ml (0.2 ml/well) and then incubated for 96 hours in the presence of variable concentrations of product to be studied (10, 1, 0.1 and 0.01 μg/ml, each point in quadruplicate). 16 hours before the end of the incubation, 0.02% final of neutral red is added to each well. At the end of the incubation, the cells are washed with 1× PBS and lysed with 1% sodium lauryl sulphate. The cellular incorporation of the dye, which reflects cellular growth, is evaluated by spectrophotometry at a wavelength of 540 nm for each sample with the aid of a Dynatech MR5000 reading apparatus.
(compound value−blank value/cell control value−blank value)×100.

Molecules are shown by their SMILES. Counter-ions that a name gives are not always drawn. Like-named read-outs stand apart in the source and are kept apart here.

Regarding `CSc1nc(Nc2ccc3nc[nH]c3c2)nc(Nc2ccc3nc(C)cc(N)c3c2)n1` [Example 18-10], the “G4 Tm” value in data set [1] was 49 °C. Also, the half-maximal inhibitory concentration (IC50) in data set [2] amounted to 3.3 µM; in the data set with A549 cells (Homo sapiens, A549, 96 h), 10 µM.
For the molecule `Cc1cc(N)c2cc(Nc3ccnc(Nc4ccc5nc(C)cc(N)c5c4)n3)ccc2n1.Cl.Cl.Cl.O.O.O.O.O` [Example 15, bis-2,4-[(4′-amino-6′-quinaldinyl)amino]pyrimidine trihydrochloride pentahydrate], in data set [1], the “FLUORESCENCE Tm” value amounted to 53° ° C. Also, the values for the half-inhibitory concentration (IC50) (in data set [2]; in the data set on A549 cells) were 0.49 µM and 8.7 µM, respectively.
Regarding `CNc1nc(Nc2ccc3nc(C)cc(N)c3c2)nc(Nc2ccc3nc(C)cc(N)c3c2)n1` [Example 4, 2-methylamino-bis-4,6-[(4′-amino-6′-quinaldinyl)amino]triazine trihydrochloride], the “FLUORESCENCE Tm” value in data set [1] was 48° ° C. Besides, the IC50 in data set [2] came to 0.51 µM; in the data set on A549 cells (Homo sapiens, A549, 96 h), 3.1 µM.
With `C[n+]1c2ccccc2c(N)c2cc(Nc3nc(N)nc(Nc4ccc5c(c4)c(N)c4ccccc4[n+]5C)n3)ccc21` [Example 7, 2-amino-bis-4,6-[(9′-amino-10′-methyl-2′-acridinio)amino]triazine dichloride hydrochloride], in data set [1], the “FLUORESCENCE Tm” value amounted to 55° ° C. The IC50 turned out to be 0.89 µM in data set [2] and 4.9 µM in the data set on A549 cells (Homo sapiens, A549, 96 h).

The term IC50 denotes the concentration that gives 50% inhibition.
